Measurements as given in patent publication US9720000B2, “Targeted identification of immunogenic peptides” (The Henry M. Jackson Foundation for the Advancement of …, priority 2005, dated 2017).

Key:
Assay type in all cases: cell-based
HLA-A2 = target: T1, HLA-A2 (Homo sapiens, UniProt P04439, D140Y/D185E/D98H/E176V/E277Q/G131W/G231S/I119V/I121R/I166T/I218V/L300P/L318F/N151K/N90K/P208A/P217A/Q86G/Q94H/R138H/R169H/T345S); assay: T2 HLA-stabilization (peptide-binding) assay by flow cytometry; settings: peptide incubated with T2 cells (25 μg per FIG. 5)
T1 construct: endogenous in cells; host or cells: T2 cells
Description: FIG. 5 depicts a T2 Peptide-binding assay, in which 25 μg of peptide were incubated with T2 cells, levels of HLA-A2 levels were measured by flow cytometry and are indicated as Mean Fluorescence Intensity units.
(§1) T2 HLA-stabilization assays were performed to confirm HLA-A2 binding activity of Her577 by flow cytometry. PBMC from 9 healthy donors were stimulated with Her577 and tested in ^51Cr-release cytotoxicity (CTX) assays against 3 HER2/neu-expressing tumor cell lines.

LNCaP tumor cells = assay: 51Cr-release cytotoxicity (CTX) assay with peptide-stimulated CTL against LNCaP; settings: for average specific CTX (% lysis) against LNCaP: peptide-stimulated CTL from healthy donor PBMC, LNCaP (HLA-A2+), n = 2
Description: as §1

SKOV-3 tumor cells = assay: 51Cr-release cytotoxicity (CTX) assay with peptide-stimulated CTL against SKOV-3; settings: for average specific CTX (% lysis) against SKOV-3: peptide-stimulated CTL from healthy donor PBMC, SKOV-3 (HLA-A3+), n = 2
Description: as §1

MCF-7 tumor cells = assay: 51Cr-release cytotoxicity (CTX) assay with peptide-stimulated CTL against MCF-7; settings: for average specific CTX (% lysis) against MCF-7: peptide-stimulated CTL from healthy donor PBMC, MCF-7 (HLA-A2+), n = 5
Description: as §1

[1] = Her577-stimulated CTL, targets pre-treated with Tz at 50 μg/ml for 24 h, P=0.19

Row | Substance | mean fluorescence intensity (HLA-A2 level on T2 cells) (HLA-A2) | average specific CTX (% lysis) against LNCaP (LNCaP tumor cells) [% lysis] | average specific CTX (% lysis) against SKOV-3 (SKOV-3 tumor cells) [% lysis] | average specific CTX (% lysis) against MCF-7 (MCF-7 tumor cells) [% lysis] | increase in specific CTX versus untreated LNCaP (LNCaP tumor cells; [1]) [%] | increase in specific CTX versus untreated SKOV-3 (SKOV-3 tumor cells; [1]) [%] | increase in specific CTX versus untreated MCF-7 (MCF-7 tumor cells; [1]) [%]
1 | GP2: immunogenic peptide from HER2/neu (IISAVVGIL) [reference compound] | 682 | 26 ± 9 | 46 ± 5 | 48 ± 1 |  |  | 
2 | Her577: peptide Her577 (aa; 577-585) within the Ab-binding site of trastuzumab on HER2/neu (FGPEADQCV) | 1275 | 30 ± 3 | 49 ± 28 | 45 ± 3 | 83 | 47 | 16
